Test: Inhibition of HIV integrase-mediated strand transfer activity
Parameters: species or system Human immunodeficiency virus

| Structure (SMILES) | IC50 |
| --- | --- |
| O=C(/C=C(\O)C(=O)O)Cc1ccccc1 | > 200000 nM |
| O=C(/C=C(\O)C(=O)O)Nc1cccc(Cl)c1 | 700 nM |
| O=C(/C=C(\O)C(=O)O)Nc1ccc(F)cc1 | 13400 nM |
| O=C(/C=C(\O)C(=O)O)Nc1ccc(Cl)cc1 | 5600 nM |
| CN(C(=O)/C=C(\O)C(=O)O)c1cccc(Cl)c1 | > 125000 nM |
| O=C(/C=C(\O)C(=O)O)Nc1ccc(Cl)c(Cl)c1 | 160 nM |
| O=C(O)/C(O)=C/C(=O)N1CCc2cc(Cl)c(Cl)cc21 | 20 nM |
| O=C(O)/C(O)=C/C(=O)N1CCc2ccccc21 | 200 nM |
| O=C(O)/C(O)=C/c1nc2ccc(Cl)cc2o1 | > 100000 nM |
| O=C(O)/C(O)=C/C(=O)N1CCc2cc(F)ccc21 | 230 nM |
| O=C(/C=C(\O)C(=O)O)Nc1ccc(F)c(F)c1 | 2400 nM |

Reference: ChEMBL document CHEMBL1139734, “Exploration of the diketoacid integrase inhibitor chemotype leading to the discovery of the anilide-ketoacids chemotype” (Bioorg Med Chem Lett, 2006)
